Results: patent publication US8080529B2, “Macrolides with anti-inflammatory activity” (Glaxo Group Limited, priority 2005, dated 2011)

How the values were obtained:
[1] = system: PMA induced ear oedema; assay: Phorbol 12-myristate 13-acetate induced ear oedema in CD1 mice; assay type: in vivo
Protocol: Male CD1 mice (Iffa Credo, France) weighing 30-40 g were randomly grouped (n=6 in test group of which the untreated ear served as negative control; 6 in positive control group which also served as their own negative control group). Test compounds, as well as vehicle (Trans-phase Delivery System, containing benzyl alcohol 10%, acetone 40% and isopropanol 50%) (all from Kemika, Croatia), were administered topically to the internal surface of the left ear thirty minutes prior to administration of phorbol 12-myristate 13-acetate (PMA) (Sigma, USA). Test compounds were administered at a dose of 100, 250 or 500 μg/15 μL/ear. Thirty minutes later, 0.01% PMA solution in acetone was applied topically to the inner surface of the left ear of each animal in a volume of 12 μL/ear. During the treatment and challenge (stimulation), animals were anaesthetized with anaesthesia by inhalation. Six hours following challenge, animals were euthanized by intraperitoneal thiopental injection (PLIVA, Croatia). For assessing the auricular oedema, 8 mm discs were cut out of left and right auricular pinna and weighed. The degree of oedema was calculated by subtracting the weight of 8 mm disc of the untreated ear from that of the treated contralateral ear. The inhibition of oedema in the treated animals, presented in the Table 8, is expressed as percentage compared to control mice (0%).

[2] = system: LPS-induced septic shock; assay: Septic shock induced by bacterial lipopolysaccharide in male BALB/cJ mice; assay type: in vivo; conditions: 24 hours
Protocol: Male BALB/cJ mice, (Iffa Credo, Lyon, France) 8 weeks old, weighing 25 g were randomly grouped (n=10 in testing groups and 15 in control group). Animals were primed with 4 μg bacterial lipopolysaccharide (LPS) that was dissolved in saline and administered i.pl. After 18-24 hours animals were challenged by an intravenous injection of 90 μg LPS in a volume of 0.2 mL. Animals were treated with the test compounds or the vehicle (control) intraperitoneally . . . or per os 30 min prior to each injection of LPS. Survival throughout 24 hours was monitored.

| Structure (SMILES) | Oedema (% inhibition) ([1]; 100 μg/ear topical) [%] | Oedema (% inhibition) ([1]; 250 μg/ear topical) [%] | Oedema (% inhibition) ([1]; 500 μg/ear topical) [%] | Survival (%) ([2]; 1 mg/kg p.o.) | Survival (%) ([2]; 10 mg/kg p.o.) | Survival (%) ([2]; 100 mg/kg p.o.) | Survival (%) ([2]; 10 mg/kg i.p.) |
| --- | --- | --- | --- | --- | --- | --- | --- |
| CC[C@H]1OC(=O)[C@H](C)[C@@H](O[C@H]2C[C@@](C)(OC)[C@@H](O)[C@H](C)O2)[C@H](C)[C@@H](O[C@@H]2O[C@H](C)C[C@H](N(C)C)[C@H]2O)[C@](C)(O)C[C@@H](C)CN(C)[C@H](C)[C@@H](O)[C@]1(C)O [azithromycin, reference compound] | 0 | 83 | 90 | 30 | 60 | 70 |  |
| CCC1OC(=O)C(C)C(OC2CC(C)(OC)C(OC(=O)CCN(CC)CC)C(C)O2)C(C)C(OC2OC(C)CC(N(C)C)C2O)C(C)(OC)CC(C)C(=O)NC(C)C(O)C1(C)O (centres unmarked) [Example 8, 4″-O-(3-Diethylamino-propionyl)-6-O-methyl-9a-aza-9a-homoerythromycin A] | 54 | 74 | 94 |  |  | 100 | 50 |
